Measured values from patent publication US11598051B2, “Method for manufacturing a fibrous web” (Kemira Oyj, priority 2017, dated 2023).

Experiments:
[1] = system: Total aerobic bacteria (authentic bacterial population of a broke sample); experiment: Example 1 laboratory broke test: total aerobic bacteria by agar plate cultivation; type: cell-based; settings: for Total aerobic bacteria: 10 mg/l as total active chlorine, +45° C.
Procedure: (§1) This laboratory test compared efficacy of two oxidizing biocides, namely free active chlorine and stabilized active chlorine, in killing of vegetative bacterial cells and in controlling of bacterial spore formation. Test was performed with authentic bacterial population of a broke sample taken from couch pit of a board machine making 3-ply food-packaging board. Broke sample was divided in equal proportions. Two reference samples were stored as such, the “free active chlorine” sample was treated with sodium hypochlorite, and the “stabilized active chlorine” sample was treated with sodium hypochlorite stabilized by 5,5-dimethylhydantoin (mixed in 1:1 molar ratio to form monochloro-5,5-dimethylhydantoin, MCDMH). Both forms of active chlorine were dosed at 10 ppm (=mg/l as total active chlorine Cl2). Broke samples were stored at +45° C. without mixing. Total aerobic bacteria and aerobic bacterial spores were quantified by using conventional agar plate cultivation methods (Plate Count Agar, incubation at +37° C. for 2 days) at the beginning of the test (untreated reference samples) and after 1 and 2 days of contact time. Broke pH and Redox (mV) values were also monitored.

aerobic bacterial spores [2] = experiment: Example 1 laboratory broke test: aerobic bacterial spores by agar plate cultivation; type: cell-based, bacteria; settings: for Bacterial spores: 10 mg/l as total active chlorine, +45° C.
Procedure: as §1

aerobic bacterial spores [3] = experiment: Example 3 board machine biocide programs: aerobic bacterial spores from process locations; design: species or system bacteria; settings: for ΔSpore content within the broke system: difference between inlet and outlet
Excerpt: (§2) This example compares technical performance of two different biocide programs in the broke system of a 3-ply board machine producing food-packaging board. Broke system is a part of the wet-end of the board making process. This board machine has set a hygiene target for the final board that it should contain aerobic bacterial spores less than 1000 CFU, and preferably less than 250 CFU, per gram of dry board.
(§3) In this experiment, for the first period (Days 1-10) the machine was running a biocide program consisting of stabilized active chlorine (MCDMH) and glutaraldehyde. For the second period, the machine was running chlorine dioxide, a non-stabilized oxidizer, as the biocide. It was running for 10 days starting from a shutdown (Days 15-25). Third period (Days 26-47) was run with the same MCDMH and glutaraldehyde program as the first period. During this experiment technical performance of the two different biocide programs was monitored at selected dates by several means: on-line Redox monitoring system collecting Redox values at every 10 minutes (results are shown as daily average mV values); measuring aerobic spore content of the final board samples; and by measuring aerobic bacterial spore quantities from different process locations by using agar plate cultivation methods (pasteurization at 82° C. for 20 min, followed by cultivation on Plate Count Agar for 2 days at +37° C.).

[4] = system: Total aerobic bacteria (mill's authentic bacterial population); experiment: Example 2 laboratory broke storage test: total aerobic bacteria by agar plate cultivation; type: cell-based
Procedure: (§4) This laboratory test was performed with broke sample taken from an alkaline board machine producing 3-ply food-packaging board and the sample included the mill's authentic bacterial population in it. The sample was divided in two different containers, one stored as such and the second one amended with biocide, 50 mg/l of glutaraldehyde as active agent. Containers were closed and stored at +45° C. without mixing i.e. under conditions that simulate situation in broke storage tower during a machine shutdown. Total aerobic bacteria and aerobic spore contents were determined by using conventional agar plate cultivation methods (plate count agar, 2 days incubation at +37° C.) at the beginning of the test and after 3 days of storage time, along with pH and redox measurements.

aerobic spores = experiment: Example 2 laboratory broke storage test: aerobic spore content by agar plate cultivation; type: cell-based, bacteria
Procedure: as §4

aerobic bacterial spores [5] = experiment: Example 3 board machine biocide programs: aerobic spore content of final board; design: species or system bacteria
Excerpt: as §2, §3

[6] = broke, 50 mg/l as active agent, +45° C., closed, after 3 days storage time
[7] = Day 15, second period (Days 15-25)
[8] = Day 19, second period (Days 15-25)
[9] = Day 25, second period (Days 15-25)

CC1(C)NC(=O)N(Cl)C1=O [MCDMH, monochloro-5,5-dimethylhydantoin]
stronger reduction of total aerobic bacteria content compared to free chlorine ([1]; 10 mg/l as active chlorine, after 1 day of storage): 1 log unit | Total aerobic bacteria ([1]; broke, 1 days storage time): 6×10^4 CFU/ml | Total aerobic bacteria ([1]; broke, 2 days storage time): 2 × 10^7 CFU/ml | spore formation in the broke (aerobic bacterial spores [2]; 10 mg/l as active chlorine, 2 days experiment): did not cause any new spore formation | spore counts (aerobic bacterial spores [2]; 10 mg/l as active chlorine, during the 2 days experiment): 30-60 CPU/ml | Bacterial spores (aerobic bacterial spores [2]; 1 days storage time): 30 CFU/ml | Bacterial spores (aerobic bacterial spores [2]; 2 days storage time): 60 CFU/ml | spores in incoming pulp (aerobic bacterial spores [3]; first period (Days 1-10)): 30-80 CFU/ml | spores in pulp transportation water (aerobic bacterial spores [3]; first period (Days 1-10)): 15 CFU/ml

[Na+].[O-]Cl [Na-hypochlorite, sodium hypochlorite]
Total aerobic bacteria ([1]; broke, 1 days storage time): 4 × 10^5 CFU/ml | Total aerobic bacteria ([1]; broke, 2 days storage time): 2 × 10^7 CFU/ml | killing effect ([1]; broke, 10 ppm dosing level): did not demonstrate any longer-term killing effect | total aerobic bacteria content ([1]; broke, 10 ppm, after 1 day of storage): 4×10^5 CPU/ml | Bacterial spores (aerobic bacterial spores [2]; 1 days storage time): 60 CFU/ml | Bacterial spores (aerobic bacterial spores [2]; 2 days storage time): 670 CFU/ml | increase in the quantity of aerobic spores (aerobic bacterial spores [2]; 10 ppm, 1 day to 2 days storage (60 to 670 CFU/ml)): 10 fold

O=CCCCC=O [glutaraldehyde]
killing effect ([4]; 50 mg/l, 3 days of storage): did not have a long-lasting killing effect | total aerobic bacteria relative to the untreated reference ([4]; 50 mg/l, after 3 days of storage): 40% | Total aerobic bacteria [4, 6]: 2×10^7 CFU/ml | spore formation in the broke sample (aerobic spores; 50 mg/l, 3 days of storage): not triggering any spore formation | Bacterial spores (aerobic spores; [6]): 80 CFU/ml

[O][Cl+][O-] [chlorine dioxide]
Aerobic Bacterial Spores in process, High consistency (4-6 w/w-%) broke tower (aerobic bacterial spores [3]; [7]): 440 CFU/ml | Aerobic Bacterial Spores in process, Incoming Pulp (aerobic bacterial spores [3]; [7]): 20 CFU/ml | Aerobic Bacterial Spores in process, Low consistency (1-4 w/w-%) broke tower (aerobic bacterial spores [3]; [7]): 250 CFU/ml | ΔSpore content within the broke system (aerobic bacterial spores [3]; Day 15, second period): +190 CFU/ml | Aerobic Bacterial Spores in process, High consistency (4-6 w/w-%) broke tower (aerobic bacterial spores [3]; [8]): 1100 CFU/ml | Aerobic Bacterial Spores in process, Incoming Pulp (aerobic bacterial spores [3]; [8]): 60 CFU/ml | Aerobic Bacterial Spores in process, Low consistency (1-4 w/w-%) broke tower (aerobic bacterial spores [3]; [8]): 610 CFU/ml | ΔSpore content within the broke system (aerobic bacterial spores [3]; Day 19, second period): +490 CFU/ml | Aerobic Bacterial Spores in process, High consistency (4-6 w/w-%) broke tower (aerobic bacterial spores [3]; [9]): 950 CFU/ml | Aerobic Bacterial Spores in process, Low consistency (1-4 w/w-%) broke tower (aerobic bacterial spores [3]; [9]): 850 CFU/ml | ΔSpore content within the broke system (aerobic bacterial spores [3]; Day 25, second period): +100 CFU/ml | spore formation in the broke system (aerobic bacterial spores [3]; second period (Days 15-25)): triggered intensive spore formation | spore quantities in the high consistency broke tower (aerobic bacterial spores [3]; second period (Days 15-25), maximum): up to 1100 CFU/ml | Bacterial Spores in Final Board (aerobic bacterial spores [5]; [7]): 520 CFU/g | Bacterial Spores in Final Board (aerobic bacterial spores [5]; [8]): 5530 CFU/g | Bacterial Spores in Final Board (aerobic bacterial spores [5]; Day 21, second period (Days 15-25)): 9580 CFU/g | Bacterial Spores in Final Board (aerobic bacterial spores [5]; [9]): 3210 CFU/g | spore content in the final board, highest value (aerobic bacterial spores [5]; second period (Days 15-25)): ≤ 9580 CFU/g
